The values below come from patent US12673946B2, “Pyrimidin-4(3H)-one derivatives as TRPV4 antagonists” (RaQualia Pharma Inc., priority 2020, dated 2026).

For the assay, the target named is T1, human TRPV4 (Homo sapiens, UniProt Q9HBA0).
T1 construct: host or cells: tetracycline-inducible Flp-In T-REx 293 cells
The assay can be described thus: Hypotonicity-induced Ca2+ influx (Fluo-4, FDSS). The class given is cell-based. A digest of the protocol: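 Flp-In T-REx 293 cells with tetracycline-induced human TRPV4, loaded with Fluo-4 for 60 min at 25 °C. Compound added 5 min before hypotonic mannitol/CaCl2 solution. Ca2+ signal recorded for 4.5 min on FDSS.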

Setting [1] is: Flp-In T-REx 293 cells expressing human TRPV4, examples listed under heading 'Human IC50<50 nM'.
[2] abbreviates: Flp-In T-REx 293 cells stably expressing human TRPV4, compounds listed by potency bin (<10 nM Tables 96-1/96-2, <3 nM Table 97).

T1 sequence (Q9HBA0 whole entry): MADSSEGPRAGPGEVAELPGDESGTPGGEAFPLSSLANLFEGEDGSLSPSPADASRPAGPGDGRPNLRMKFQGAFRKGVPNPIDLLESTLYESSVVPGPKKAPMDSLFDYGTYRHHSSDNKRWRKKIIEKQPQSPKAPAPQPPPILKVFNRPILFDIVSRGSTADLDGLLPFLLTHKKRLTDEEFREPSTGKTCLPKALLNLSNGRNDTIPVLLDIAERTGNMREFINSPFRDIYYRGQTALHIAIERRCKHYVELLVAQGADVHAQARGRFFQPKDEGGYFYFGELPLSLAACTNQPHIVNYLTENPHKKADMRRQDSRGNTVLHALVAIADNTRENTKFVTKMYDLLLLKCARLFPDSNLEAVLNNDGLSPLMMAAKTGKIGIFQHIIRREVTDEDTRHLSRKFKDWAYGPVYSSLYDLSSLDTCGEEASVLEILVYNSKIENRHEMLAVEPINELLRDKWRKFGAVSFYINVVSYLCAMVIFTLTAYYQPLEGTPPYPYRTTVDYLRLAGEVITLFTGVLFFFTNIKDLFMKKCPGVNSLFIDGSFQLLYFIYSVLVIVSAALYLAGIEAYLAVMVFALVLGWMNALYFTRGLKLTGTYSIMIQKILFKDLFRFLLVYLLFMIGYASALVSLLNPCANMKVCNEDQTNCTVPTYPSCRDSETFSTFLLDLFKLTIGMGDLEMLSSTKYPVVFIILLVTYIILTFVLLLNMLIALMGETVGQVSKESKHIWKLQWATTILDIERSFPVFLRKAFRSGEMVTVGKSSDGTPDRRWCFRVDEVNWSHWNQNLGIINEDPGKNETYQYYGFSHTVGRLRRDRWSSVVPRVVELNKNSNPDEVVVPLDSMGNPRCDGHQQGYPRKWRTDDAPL

In the case of `CC(C)c1cccc(C2(c3nc4c(c(=O)[nH]3)CN(C(=O)C(F)(F)c3cccc(C(F)(F)F)c3)CCC4)CC2)c1` [20-6], the IC50 is less than 0.05 µM under setting [1] and less than 0.01 µM under setting [2].

As to `O=C(N1CCCc2nc(C3(c4ccccc4)CC3)[nH]c(=O)c2C1)C(F)(F)c1cccc(Cl)c1` [20-7], the IC50 under setting [1] is less than 0.05 µM and the IC50 under setting [2] was less than 0.01 µM.

Take `CC(C)c1cccc(C2(c3nc4c(c(=O)[nH]3)CN(C(=O)C(F)(F)c3cccc(Cl)c3)CCC4)CC2)c1` [20-8]: the IC50 under setting [1] is less than 0.05 µM and the IC50 under setting [2] was less than 0.01 µM.

`O=C(N1CCc2nc(C3(c4ccccc4)CC3)[nH]c(=O)c2C1)C(F)(F)c1cccc(C(F)(F)F)c1` [20-9] gave a half-maximal inhibitory concentration (IC50) under setting [1] of less than 0.05 µM.

For `O=C(N1CCc2nc(C3(c4cccc(Cl)c4)CC3)[nH]c(=O)c2C1)C(F)(F)c1cccc(C(F)(F)F)c1` [20-10], under setting [1], the IC50 is less than 0.05 µM.

Molecule `CC(C)c1cccc(C2(c3nc4c(c(=O)[nH]3)CN(C(=O)C(F)(F)c3cccc(C(F)(F)F)c3)CC4)CC2)c1` [20-13] returned an IC50 under setting [1] of less than 0.05 µM.

`CC(C)c1cccc(C2(c3nc4c(c(=O)[nH]3)CN(C(=O)C(F)(F)c3cccc(Cl)c3)CC4)CC2)c1` [20-14]: under setting [1], the IC50 is less than 0.05 µM.

As to `O=C(N1CCCc2nc(C3(c4cccc(-c5csc6ccccc56)c4)CC3)[nH]c(=O)c2C1)C(F)(F)c1cccc(C(F)(F)F)c1` [20-15], the IC50 is, setting by setting: under setting [1], less than 0.05 µM; under setting [2], less than 0.01 µM.

As to `O=C(N1CCCc2nc(C3(c4cccs4)CC3)[nH]c(=O)c2C1)C(F)(F)c1cccc(C(F)(F)F)c1` [21-1], the IC50 is less than 0.05 µM under setting [1] and less than 0.003 µM under setting [2].

`O=C(N1CCCc2nc(C3(c4cccs4)CC3)[nH]c(=O)c2C1)C(F)(F)c1cccc(Cl)c1` [21-2] showed an IC50 under setting [1] of less than 0.05 µM and an IC50 under setting [2] of less than 0.01 µM.

Consider `CC(C)c1csc(C2(c3nc4c(c(=O)[nH]3)CN(C(=O)C(F)(F)c3cccc(Cl)c3)CCC4)CC2)c1` [21-3], for which the IC50 was less than 0.05 µM under setting [1] and less than 0.003 µM under setting [2].

In the case of `CC(C)c1csc(C2(c3nc4c(c(=O)[nH]3)CN(C(=O)C(F)(F)c3cccc(Cl)c3)CC4)CC2)c1` [21-4], the IC50 runs as follows: under setting [1], less than 0.05 µM; under setting [2], less than 0.01 µM.

`CC(C)c1csc(C2(c3nc4c(c(=O)[nH]3)CN(C(=O)C(F)(F)c3cccc(C(F)(F)F)c3)CC4)CC2)c1` [21-5] registered an IC50 under setting [1] of less than 0.05 µM and an IC50 under setting [2] of less than 0.01 µM.

With `CC(C)c1csc(C2(c3nc4c(c(=O)[nH]3)CN(C(=O)C(F)(F)c3cccc(Cl)c3F)CCC4)CC2)c1` [21-6], the half-maximal inhibitory concentration (IC50) by setting is: under setting [1], less than 0.05 µM; under setting [2], less than 0.01 µM.

As for `CC(C)c1cncc(C2(c3nc4c(c(=O)[nH]3)CN(C(=O)C(F)(F)c3cccc(C(F)(F)F)c3)CCC4)CC2)c1` [22-1], the IC50 is, setting by setting: under setting [1], less than 0.05 µM; under setting [2], less than 0.003 µM.

In the case of `O=C(N1CCCc2nc(C3(c4cncc(-c5ccccc5)c4)CC3)[nH]c(=O)c2C1)C(F)(F)c1cccc(Cl)c1` [22-2], the IC50 is, setting by setting: under setting [1], less than 0.05 µM; under setting [2], less than 0.003 µM.

With `CC(C)c1cncc(C2(c3nc4c(c(=O)[nH]3)CN(C(=O)C(F)(F)c3cccc(Cl)c3)CCC4)CC2)c1` [22-3], the IC50 was less than 0.05 µM under setting [1] and less than 0.003 µM under setting [2].

In the case of `O=C(N1CCCc2nc(C3(c4cncc(-c5ccccc5)c4)CC3)[nH]c(=O)c2C1)C(F)(F)c1cccc(C(F)(F)F)c1` [22-4], the IC50 is less than 0.05 µM under setting [1] and less than 0.003 µM under setting [2].

With `O=C(N1CCc2nc(C3(c4cncc(-c5ccccc5)c4)CC3)[nH]c(=O)c2C1)C(F)(F)c1cccc(Cl)c1` [22-5], the IC50 by setting is: under setting [1], less than 0.05 µM; under setting [2], less than 0.01 µM.

For the molecule `O=C(N1CCc2nc(C3(c4cncc(-c5ccccc5)c4)CC3)[nH]c(=O)c2C1)C(F)(F)c1cccc(C(F)(F)F)c1` [22-6], the IC50 reads like this: under setting [1], less than 0.05 µM; under setting [2], less than 0.01 µM.

With `O=C(N1CCCc2nc(C3(c4cncc(-c5ccccc5)c4)CC3)[nH]c(=O)c2C1)C(F)(F)c1cccc(Cl)c1F` [22-7], the IC50 reads like this: under setting [1], less than 0.05 µM; under setting [2], less than 0.003 µM.
